Experimental data: PubChem BioAssay AID274 (DTP/NCI, 2004)
“And” between values parts separate entries of the source, which are not always exact repeats. Identical values can stand only once. Toxic doses and inconclusive results are not listed. The calls were made as follows: active = survival T/C of 150% or more; inactive = T/C below 125% in these data.

Test system: BDF1 mice, Lewis lung carcinoma iv, survival T/C
Assay: NCI In Vivo Anticancer Drug Screen. Data for tumor model Lewis Lung Carcinoma (intravenous) in B6D2F1 (BDF1) mice
Conditions: endpoint: median survival time, higher = longer survival
Description: The antitumor activity of compounds was measured in mice bearing transplantable tumors. Survival or tumor size were measured and the results are expressed as the measurement made in the treated group (T) divided by the measurement made in the vehicle treated control group (C). The tumor model used in this assay is Lewis Lung Carcinoma (intravenous) in B6D2F1 (BDF1) mice

[1] = dose: 3.12 mg/kg/injection, schedule: Q01DX009 (ip), vehicle: Klucel (hydroxypropylcellulose) (HPC)
[2] = dose: 6.25 mg/kg/injection, schedule: Q01DX009 (ip), vehicle: Klucel (hydroxypropylcellulose) (HPC)
[3] = dose: 50.0 mg/kg/injection, schedule: Q01DX009 (ip), vehicle: Klucel (hydroxypropylcellulose) (HPC)
[4] = dose: 100.0 mg/kg/injection, schedule: Q01DX009 (ip), vehicle: Klucel (hydroxypropylcellulose) (HPC)
[5] = dose: 0.6 mg/kg/injection, schedule: Q04DX003 (ip), vehicle: saline
[6] = dose: 1.0 mg/kg/injection, schedule: Q04DX003 (ip), vehicle: saline
[7] = dose: 216.0 micrograms/kg/injection, schedule: Q01DX009 (ip), vehicle: saline
[8] = dose: 200.0 mg/kg/injection, schedule: Q01DX009 (ip), vehicle: Klucel (hydroxypropylcellulose) (HPC)
[9] = dose: 400.0 mg/kg/injection, schedule: Q01DX009 (ip), vehicle: Klucel (hydroxypropylcellulose) (HPC)
[10] = dose: 100.0 mg/kg/injection, schedule: Q01DX009 (ip), vehicle: saline
[11] = dose: 12.5 mg/kg/injection, schedule: Q01DX009 (ip), vehicle: saline with Tween-80
[12] = dose: 200.0 mg/kg/injection, schedule: Q01DX009 (ip), vehicle: saline

Measured: T/C

CC(C)C(=O)OCC1OC(n2cnc3c(=S)nc(N)[nH]c32)C(OC(=O)C(C)C)C1OC(=O)C(C)C (configuration not stated)
inactive: [1] 97 % of control | [2] 90 % of control

O=c1c(O)c(-c2cc(O)c(O)c(O)c2)oc2cc(O)cc(O)c12
inactive: dose: 6.25 mg/kg/injection, schedule: Q01DX009 (ip), vehicle: other 88 % of control | dose: 12.5 mg/kg/injection, schedule: Q01DX009 (ip), vehicle: other 94 % of control | dose: 25.0 mg/kg/injection, schedule: Q01DX009 (ip), vehicle: other 93 % of control | dose: 50.0 mg/kg/injection, schedule: Q01DX009 (ip), vehicle: other 93 % of control | dose: 100.0 mg/kg/injection, schedule: Q01DX009 (ip), vehicle: other 115 % of control | dose: 200.0 mg/kg/injection, schedule: Q01DX009 (ip), vehicle: other 97 % of control

CCc1c(CC(=O)O)c2cc(C)ccc2n1Cc1ccc(Cl)cc1
inactive: [1] 110 % of control | dose: 3.13 mg/kg/injection, schedule: Q01DX009 (ip), vehicle: Klucel (hydroxypropylcellulose) (HPC) 119 % of control | [2] 105 % of control and 108 % of control | dose: 12.5 mg/kg/injection, schedule: Q01DX009 (ip), vehicle: Klucel (hydroxypropylcellulose) (HPC) 100 % of control and 117 % of control | dose: 25.0 mg/kg/injection, schedule: Q01DX009 (ip), vehicle: Klucel (hydroxypropylcellulose) (HPC) 91 % of control and 99 % of control | [3] 95 % of control and 119 % of control | [4] 112 % of control and 88 % of control

COC1CC(CC2CCC(C)C(C(C)C(=O)O)O2)OC2(OC(C)(C3CCC(C)(C4OC(C5OC(O)(CO)C(C)CC5C)CC4C)O3)CC2C)C1C (configuration not stated)
inactive: dose: 0.31 mg/kg/injection, schedule: Q01DX009 (ip), vehicle: Klucel (hydroxypropylcellulose) (HPC) 99 % of control | dose: 0.63 mg/kg/injection, schedule: Q01DX009 (ip), vehicle: Klucel (hydroxypropylcellulose) (HPC) 94 % of control | dose: 1.25 mg/kg/injection, schedule: Q01DX009 (ip), vehicle: Klucel (hydroxypropylcellulose) (HPC) 100 % of control | dose: 5.0 mg/kg/injection, schedule: Q01DX009 (ip), vehicle: Klucel (hydroxypropylcellulose) (HPC) 96 % of control

O=C1C(=O)c2cccnc2-c2ncccc21
inactive: dose: 0.78 mg/kg/injection, schedule: Q01DX009 (ip), vehicle: Klucel (hydroxypropylcellulose) (HPC) 116 % of control | dose: 1.56 mg/kg/injection, schedule: Q01DX009 (ip), vehicle: Klucel (hydroxypropylcellulose) (HPC) 91 % of control | [1] 100 % of control

CC[C@]1(O)C[C@H]2CN(CCc3c([nH]c4ccccc34)[C@@](C(=O)OC)(c3cc4c(cc3OC)N(C=O)[C@H]3[C@@](O)(C(=O)OC)[C@H](OC(C)=O)[C@]5(CC)C=CCN6CC[C@]43[C@@H]65)C2)C1
inactive: dose: 0.36 mg/kg/injection, schedule: Q04DX003 (ip), vehicle: saline 98 % of control | [5] 105 % of control | [6] 120 % of control | dose: 130.0 micrograms/kg/injection, schedule: Q01DX009 (ip), vehicle: saline 106 % of control | [7] 111 % of control

CCC/C=C/C=C/C(=O)OC1/C(=C/C(=O)OC)CC2CC(C(C)O)OC(=O)CC(O)CC3CC(OC(C)=O)C(C)(C)C(O)(CC4C/C(=C/C(=O)OC)CC(/C=C/C(C)(C)C1(O)O2)O4)O3 (configuration not stated)
inactive: dose: 18.75 micrograms/kg/injection, schedule: Q01DX009 (ip), vehicle: saline + alcohol 90 % of control | dose: 37.5 micrograms/kg/injection, schedule: Q01DX009 (ip), vehicle: saline + alcohol 98 % of control | dose: 75.0 micrograms/kg/injection, schedule: Q01DX009 (ip), vehicle: saline + alcohol 107 % of control

O=C1CC2(C(=O)N1CN1CCOCC1)c1ccccc1-c1ccccc12
inactive: [3] 94 % of control | [4] 98 % of control | [8] 101 % of control | [9] 112 % of control

CC(CNC(=O)CCOS(C)(=O)=O)NC(=O)CCOS(C)(=O)=O (configuration not stated)
inactive: [10] 106 % of control

CCc1ncnc2cc(OCC3CO3)c(OC)cc12 (configuration not stated)
inactive: dose: 6.25 mg/kg/injection, schedule: Q01DX009 (ip), vehicle: suspension in saline 98 % of control | dose: 12.5 mg/kg/injection, schedule: Q01DX009 (ip), vehicle: suspension in saline 104 % of control | dose: 25.0 mg/kg/injection, schedule: Q01DX009 (ip), vehicle: suspension in saline 93 % of control

COc1cc2cc(c1Cl)N(C)C(=O)C[C@H](OC(=O)[C@H](C)N(C)C(C)=O)[C@]1(C)O[C@H]1[C@H](C)[C@@H]1C[C@@](O)(NC(=O)O1)[C@H](OC)C=C/C=C(\C)C2
inactive: dose: 54.0 micrograms/kg/injection, schedule: Q04DX003 (ip), vehicle: water 94 % of control | dose: 90.0 micrograms/kg/injection, schedule: Q04DX003 (ip), vehicle: water 94 % of control | dose: 150.0 micrograms/kg/injection, schedule: Q04DX003 (ip), vehicle: water 90 % of control

COc1cc(O)c2c(O)c3c(c4c2c1[C@]1(C4)C(C)=CCCC1(C)C)[C@H](O)[C@@]1(O)CC(=O)C(C(N)=O)=C(O)[C@@]1(O)C3=O
inactive: dose: 1.56 mg/kg/injection, schedule: Q01DX009 (ip), vehicle: saline with Tween-80 112 % of control | dose: 3.13 mg/kg/injection, schedule: Q01DX009 (ip), vehicle: saline with Tween-80 100 % of control | dose: 6.25 mg/kg/injection, schedule: Q01DX009 (ip), vehicle: saline with Tween-80 103 % of control | [11] 102 % of control

Nc1ccc(OC(=O)Oc2ccc(N)cc2)cc1
inactive: [10] 102 % of control | [12] 113 % of control

O=Cc1ccc(C=O)c(Cl)c1
inactive: [3] 101 % of control | [4] 100 % of control | [8] 105 % of control | [9] 95 % of control

COc1cc2oc(=O)ccc2cc1[C@@H]1OC(=O)C2(C)O[C@@H]12 (some centres not stated)
inactive: dose: 0.31 mg/kg/injection, schedule: Q01DX009 (ip), vehicle: water 96 % of control | dose: 0.62 mg/kg/injection, schedule: Q01DX009 (ip), vehicle: water 104 % of control | dose: 1.25 mg/kg/injection, schedule: Q01DX009 (ip), vehicle: water 101 % of control | dose: 2.5 mg/kg/injection, schedule: Q01DX009 (ip), vehicle: water 101 % of control | dose: 5.0 mg/kg/injection, schedule: Q01DX009 (ip), vehicle: water 100 % of control

CCC1(O)CC2CN(CCc3c([nH]c4ccccc34)C(C(=O)OC)(c3cc4c(cc3OC)N(C)C3C(O)(C(=O)NCCO)C(O)C5(CC)C=CCN6CCC43C65)C2)C1 (configuration not stated)
inactive: [5] 96 % of control | [6] 101 % of control | dose: 1.67 mg/kg/injection, schedule: Q04DX003 (ip), vehicle: saline 101 % of control | [7] 111 % of control | dose: 360.0 micrograms/kg/injection, schedule: Q01DX009 (ip), vehicle: saline 111 % of control

CC(C#N)(C#N)N=Nc1ccc(Cl)cc1Cl
inactive: [11] 105 % of control | dose: 25.0 mg/kg/injection, schedule: Q01DX009 (ip), vehicle: saline with Tween-80 94 % of control | dose: 50.0 mg/kg/injection, schedule: Q01DX009 (ip), vehicle: saline with Tween-80 92 % of control | dose: 100.0 mg/kg/injection, schedule: Q01DX009 (ip), vehicle: saline with Tween-80 103 % of control | dose: 200.0 mg/kg/injection, schedule: Q01DX009 (ip), vehicle: saline with Tween-80 95 % of control | dose: 400.0 mg/kg/injection, schedule: Q01DX009 (ip), vehicle: saline with Tween-80 101 % of control

NC1=NC(=O)N2CC12 (configuration not stated)
inactive: dose: 12.5 mg/kg/injection, schedule: Q01DX009 (ip), vehicle: saline 107 % of control | dose: 25.0 mg/kg/injection, schedule: Q01DX009 (ip), vehicle: saline 110 % of control | dose: 50.0 mg/kg/injection, schedule: Q01DX009 (ip), vehicle: saline 105 % of control | [10] 105 % of control | [12] 109 % of control

Cc1c[nH]c(=O)[nH]c1=O
inactive: dose: 32.0 mg/kg/injection, schedule: Q01DX009 (ip), vehicle: Klucel (hydroxypropylcellulose) (HPC) 104 % of control | dose: 64.0 mg/kg/injection, schedule: Q01DX009 (ip), vehicle: Klucel (hydroxypropylcellulose) (HPC) 114 % of control | dose: 128.0 mg/kg/injection, schedule: Q01DX009 (ip), vehicle: Klucel (hydroxypropylcellulose) (HPC) 93 % of control | dose: 256.0 mg/kg/injection, schedule: Q01DX009 (ip), vehicle: Klucel (hydroxypropylcellulose) (HPC) 101 % of control | dose: 512.0 mg/kg/injection, schedule: Q01DX009 (ip), vehicle: Klucel (hydroxypropylcellulose) (HPC) 92 % of control
